PubChem BioAssay AID1259407 (Chemical Carcinogenesis Research Information System (CCRIS), 2018)
The source made the active and inactive calls. How the calls were made is not given here.

Test system: CCRIS mutagenicity, Ames/micronucleus/aberration tests
Assay: CCRIS mutagenicity studies
[1] = Test System: AMES SALMONELLA TYPHIMURIUM, Strain/Indicator: TA98, Metabolic Activation: NONE, Method: STANDARD PLATE
[2] = Test System: AMES SALMONELLA TYPHIMURIUM, Strain/Indicator: TA100, Metabolic Activation: NONE, Method: STANDARD PLATE
[3] = Test System: AMES SALMONELLA TYPHIMURIUM, Strain/Indicator: TA1535, Metabolic Activation: NONE, Method: STANDARD PLATE
[4] = Test System: AMES SALMONELLA TYPHIMURIUM, Strain/Indicator: TA1537, Metabolic Activation: NONE, Method: STANDARD PLATE
[5] = Test System: AMES SALMONELLA TYPHIMURIUM, Strain/Indicator: TA1538, Metabolic Activation: NONE, Method: STANDARD PLATE

## CC(C)OC(=O)C(C)(C)Oc1ccc(C(=O)c2ccc(Cl)cc2)cc1
[1]
  mutagenic call: inactive; negative
Test System: AMES SALMONELLA TYPHIMURIUM, Strain/Indicator: TA98, Metabolic Activation: RAT, LIVER, S-9, PHENOBARBITAL AND 5,6-BENZOFLAVONE, Method: STANDARD PLATE
  mutagenic call: inactive; negative
[2]
  mutagenic call: inactive; negative
Test System: AMES SALMONELLA TYPHIMURIUM, Strain/Indicator: TA100, Metabolic Activation: RAT, LIVER, S-9, PHENOBARBITAL AND 5,6-BENZOFLAVONE, Method: STANDARD PLATE
  mutagenic call: inactive; negative
[3]
  mutagenic call: inactive; negative
Test System: AMES SALMONELLA TYPHIMURIUM, Strain/Indicator: TA1535, Metabolic Activation: RAT, LIVER, S-9, PHENOBARBITAL AND 5,6-BENZOFLAVONE, Method: STANDARD PLATE
  mutagenic call: inactive; negative
[4]
  mutagenic call: inactive; negative
Test System: AMES SALMONELLA TYPHIMURIUM, Strain/Indicator: TA1537, Metabolic Activation: RAT, LIVER, S-9, PHENOBARBITAL AND 5,6-BENZOFLAVONE, Method: STANDARD PLATE
  mutagenic call: inactive; negative
Test System: E. COLI, Strain/Indicator: WP2 UVRA, Metabolic Activation: NONE, Method: STANDARD PLATE
  mutagenic call: inactive; negative
Test System: E. COLI, Strain/Indicator: WP2 UVRA, Metabolic Activation: RAT, LIVER, S-9, PHENOBARBITAL AND 5,6-BENZOFLAVONE, Method: STANDARD PLATE
  mutagenic call: inactive; negative

## O=C1c2c(O)ccc(O)c2C(=O)c2c(NCCNCCO)ccc(NCCNCCO)c21
Test System: AMES SALMONELLA TYPHIMURIUM, Strain/Indicator: TA97, Metabolic Activation: NONE, Method: STANDARD PLATE
  mutagenic call: inactive; negative
Test System: AMES SALMONELLA TYPHIMURIUM, Strain/Indicator: TA97, Metabolic Activation: RAT, LIVER, S-9, PHENOBARBITAL AND ALPHA-NAPHTHOFLAVONE, Method: STANDARD PLATE
  mutagenic call: inactive; negative
Test System: AMES SALMONELLA TYPHIMURIUM, Strain/Indicator: TA97A, Metabolic Activation: NONE, Method: STANDARD PLATE
  mutagenic call: inactive; negative
[1]
  mutagenic call: active; positive
Test System: AMES SALMONELLA TYPHIMURIUM, Strain/Indicator: TA98, Metabolic Activation: RAT, LIVER, S-9, PHENOBARBITAL AND ALPHA-NAPHTHOFLAVONE, Method: STANDARD PLATE
  mutagenic call: active; positive
[2]
  mutagenic call: inactive; negative
Test System: AMES SALMONELLA TYPHIMURIUM, Strain/Indicator: TA100, Metabolic Activation: RAT, LIVER, S-9, PHENOBARBITAL AND ALPHA-NAPHTHOFLAVONE, Method: STANDARD PLATE
  mutagenic call: inactive; negative
[3]
  mutagenic call: inactive; negative
Test System: AMES SALMONELLA TYPHIMURIUM, Strain/Indicator: TA1535, Metabolic Activation: RAT, LIVER, S-9, PHENOBARBITAL AND ALPHA-NAPHTHOFLAVONE, Method: STANDARD PLATE
  mutagenic call: inactive; negative
[5]
  mutagenic call: active; positive
Test System: MOUSE LYMPHOMA, Strain/Indicator: L5178Y (TK+/TK-), Metabolic Activation: NONE, Method: SUSPENSION/PLATE
  mutagenic call: active; positive
Test System: MOUSE LYMPHOMA, Strain/Indicator: L5178Y (TK+/TK-), Metabolic Activation: RAT, LIVER, S-9, AROCLOR 1242 AND 1254 (2:1), Method: SUSPENSION/PLATE
  mutagenic call: active; positive

## CNC(=O)OCc1nc(SC)n(C)c1COC(=O)NC
Test System: Mouse lymphoma, Strain/Indicator: L5178Y (tk+/tk-), Metabolic Activation: None, Method: Suspension/plate
  mutagenic call: active; positive
Test System: Mouse lymphoma, Strain/Indicator: L5178Y (tk+/tk-), Metabolic Activation: Rat, Liver, S-9, Aroclor 1254, Method: Suspension/plate
  mutagenic call: active; positive

## Nc1ccc2c3c(cccc13)-c1ccccc1-2
Test System: AMES SALMONELLA TYPHIMURIUM, Strain/Indicator: TA98, Metabolic Activation: RAT, LIVER, S-9, AROCLOR 1254 (2 OR 4%), Method: STANDARD PLATE
  mutagenic call: active; positive
Test System: AMES SALMONELLA TYPHIMURIUM, Strain/Indicator: TA100, Metabolic Activation: RAT, LIVER, S-9, AROCLOR 1254 (4%), Method: STANDARD PLATE
  mutagenic call: active; positive
Test System: AMES SALMONELLA TYPHIMURIUM, Strain/Indicator: TA1535, Metabolic Activation: RAT, LIVER, S-9, AROCLOR 1254 (4%), Method: STANDARD PLATE
  mutagenic call: inactive; negative
Test System: AMES SALMONELLA TYPHIMURIUM, Strain/Indicator: TA1537, Metabolic Activation: RAT, LIVER, S-9, AROCLOR 1254 (4%), Method: STANDARD PLATE
  mutagenic call: active; positive

## CC(C)NCC1CCc2cc(CO)c([N+](=O)[O-])cc2N1 (stereo not given)
[1]
  mutagenic call: active; positive
Test System: AMES SALMONELLA TYPHIMURIUM, Strain/Indicator: TA98, Metabolic Activation: RAT, LIVER, S-9, AROCLOR 1254 OR PHENOBARBITOL, Method: STANDARD PLATE
  mutagenic call: active; positive
Test System: AMES SALMONELLA TYPHIMURIUM, Strain/Indicator: TA100(FR1), Metabolic Activation: NONE, Method: STANDARD PLATE
  mutagenic call: inactive; negative
Test System: AMES SALMONELLA TYPHIMURIUM, Strain/Indicator: TA100(FR1), Metabolic Activation: RAT, LIVER, S-9, PHENOBARBITAL AND 3-METHYLCHOLANTHRENE, Method: STANDARD PLATE
  mutagenic call: inactive; negative
Test System: AMES SALMONELLA TYPHIMURIUM, Strain/Indicator: TA100, Metabolic Activation: RAT, LIVER, S-9, AROCLOR 1254 OR PHENOBARBITOL, Method: STANDARD PLATE
  mutagenic call: active; positive
Test System: AMES SALMONELLA TYPHIMURIUM, Strain/Indicator: TA100, Metabolic Activation: RAT, LIVER, S-9, PHENOBARBITAL AND 3-METHYLCHOLANTHRENE, Method: STANDARD PLATE
  mutagenic call: inactive; negative
[3]
  mutagenic call: inactive; negative
Test System: AMES SALMONELLA TYPHIMURIUM, Strain/Indicator: TA1535, Metabolic Activation: RAT, LIVER, S-9, AROCLOR 1254 OR PHENOBARBITOL, Method: STANDARD PLATE
  mutagenic call: inactive; negative
[4]
  mutagenic call: inactive; negative
Test System: AMES SALMONELLA TYPHIMURIUM, Strain/Indicator: TA1537, Metabolic Activation: RAT, LIVER, S-9, AROCLOR 1254 OR PHENOBARBITOL, Method: STANDARD PLATE
  mutagenic call: inactive; negative
[5]
  mutagenic call: inactive; negative
Test System: AMES SALMONELLA TYPHIMURIUM, Strain/Indicator: TA1538, Metabolic Activation: RAT, LIVER, S-9, AROCLOR 1254 OR PHENOBARBITOL, Method: STANDARD PLATE
  mutagenic call: inactive; negative
Test System: CHINESE HAMSTER V-79, Strain/Indicator: V-79/6-THIOGUANINE, Metabolic Activation: NONE
  mutagenic call: active; positive
Test System: CHINESE HAMSTER V-79, Strain/Indicator: V-79/6-THIOGUANINE, Metabolic Activation: RAT, LIVER, HEPATOCYTES
  mutagenic call: active; positive
Test System: CHINESE HAMSTER V-79, Strain/Indicator: V-79/OUABAIN, Metabolic Activation: NONE
  mutagenic call: active; positive
Test System: CHINESE HAMSTER V-79, Strain/Indicator: V-79/OUABAIN, Metabolic Activation: RAT, LIVER, HEPATOCYTES
  mutagenic call: active; positive

## Fc1cnc2c(c1)cc(F)c1ccccc12
Test System: AMES SALMONELLA TYPHIMURIUM, Strain/Indicator: TA100, Metabolic Activation: RAT, LIVER, S-9, PHENOBARBITAL AND 5,6-BENZOFLAVONE, Method: PREINCUBATION
  mutagenic call: inactive; negative

## O=C1OCCO1
Test System: AMES SALMONELLA TYPHIMURIUM, Strain/Indicator: TA98, Metabolic Activation: NONE, Method: PREINCUBATION
  mutagenic call: inactive; negative
Test System: AMES SALMONELLA TYPHIMURIUM, Strain/Indicator: TA98, Metabolic Activation: RAT LIVER S-9, PHENOBARBITAL AND BETA-NAPHTHOFLAVONE, Method: PREINCUBATION
  mutagenic call: inactive; negative
Test System: AMES SALMONELLA TYPHIMURIUM, Strain/Indicator: TA100, Metabolic Activation: NONE, Method: PREINCUBATION
  mutagenic call: inactive; negative
Test System: AMES SALMONELLA TYPHIMURIUM, Strain/Indicator: TA100, Metabolic Activation: RAT LIVER S-9, PHENOBARBITAL AND BETA-NAPHTHOFLAVONE, Method: PREINCUBATION
  mutagenic call: inactive; negative
Test System: AMES SALMONELLA TYPHIMURIUM, Strain/Indicator: TA1535, Metabolic Activation: NONE, Method: PREINCUBATION
  mutagenic call: inactive; negative
Test System: AMES SALMONELLA TYPHIMURIUM, Strain/Indicator: TA1535, Metabolic Activation: RAT LIVER S-9, PHENOBARBITAL AND BETA-NAPHTHOFLAVONE, Method: PREINCUBATION
  mutagenic call: inactive; negative
Test System: AMES SALMONELLA TYPHIMURIUM, Strain/Indicator: TA1537, Metabolic Activation: NONE, Method: PREINCUBATION
  mutagenic call: inactive; negative
Test System: AMES SALMONELLA TYPHIMURIUM, Strain/Indicator: TA1537, Metabolic Activation: RAT LIVER S-9, PHENOBARBITAL AND BETA-NAPHTHOFLAVONE, Method: PREINCUBATION
  mutagenic call: inactive; negative
Test System: E.COLI, Strain/Indicator: WP2UVRA/PKM101, Metabolic Activation: NONE, Method: PREINCUBATION
  mutagenic call: inactive; negative
Test System: E.COLI, Strain/Indicator: WP2UVRA/PKM101, Metabolic Activation: RAT LIVER S-9, PHENOBARBITAL AND BETA-NAPHTHOFLAVONE, Method: PREINCUBATION
  mutagenic call: inactive; negative
